Assay: Non-clinical bridging studies of toxicity, PK and local tolerability
Settings: in vivo
From the text: In addition, the FluidCrystal® vehicle and the excipient glycerol dioleate have been evaluated.

CCCCCCCC/C=C\CCCCCCCC(=O)OCC(CO)OC(=O)CCCCCCC/C=C\CCCCCCCC (stereo not shown) [glycerol dioleate]
main effects observed in non-clinical studies: reversible injection-site reactions
